Square brackets hold non-standard residues; d marks the D form. Peptide text beside a SMILES is read from it. * marks the point of attachment. Ala(6-iPr-benzothiazol-2-yl) = CC(C)c1ccc2nc(C[C@H](N)C(=O)O)sc2c1; Abu(4,4,4-F3) = N[C@@H](CC(F)(F)F)C(=O)O; 2Nal = N[C@@H](Cc1ccc2ccccc2c1)C(=O)O; Chg = N[C@H](C(=O)O)C1CCCCC1; NHPhenethyl = c1ccc(CCN*)cc1; Isovaleryl = CC(C)CC(=O)*; NHBn = c1ccc(CN*)cc1; Propionyl = CCC(=O)*; NHPh = c1ccc(N*)cc1 Bounds are passed on as bounds.

From patent publication US12012467B2, “Small molecule DCN1 inhibitors and therapeutic methods using the same” (THE REGENTS OF THE UNIVERSITY OF MICHIGAN, priority 2017, dated 2024) come the findings set out here.

DCN1, sequence (Q96GG9 58-259): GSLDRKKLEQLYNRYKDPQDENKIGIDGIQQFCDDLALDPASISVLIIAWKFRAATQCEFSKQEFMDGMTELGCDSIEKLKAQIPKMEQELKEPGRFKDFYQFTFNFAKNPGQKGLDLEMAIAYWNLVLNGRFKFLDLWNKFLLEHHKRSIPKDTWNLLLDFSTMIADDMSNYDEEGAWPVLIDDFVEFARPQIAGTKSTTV

One experiment deals with DCN1 (Homo sapiens (Human), UniProt Q96GG9). Put plainly: Competitive FP binding assay. Particulars: bounds given in μM; read-out: Binding affinity to DCN1 (IC50). The gist of the method:
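FP competition with DCN1 in 100 mM phosphate pH 6.5, 0.02% Tween-20, 2% DMSO, probe 5 nM final. Equilibrated 30 min at room temperature with shaking. DCN1 was His6-tagged (uncleaved), expressed in E. coli Rosetta2 and purified by Ni-NTA and gel filtration.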
Usually IC50 stands for the concentration needed to halve the response being measured. On to `CC(C)c1ccc2nc(C[C@H](NC(=O)C3CC3)C(=O)NCCN)sc2c1` [Example 96], for which the concentration for half-maximal inhibition (IC50) was over 10 µM. On to `CCC(=O)N[C@@H](Cc1nc2ccc(Cl)cc2s1)C(=O)N[C@@H](CN)Cc1ccccc1` (stereo in doubt) [Example 88], for which the IC50 was over 10 µM. On to `COCCC(=O)N[C@@H](Cc1nc2ccc(Cl)cc2s1)C(=O)NCCN` [Example 236], for which the IC50 is over 10 µM. Still for that read-out and setting: the result for `CCC(=O)N[C@@H](Cc1ccc2ccccc2c1)C(=O)N[C@H](C(=O)N[C@@H](CCCCN)C(=O)Nc1ccccc1)[C@@H](C)CC` [Example 9] (Propionyl-[2Nal]-Ile-Lys-NHPh) reads over 10 µM.

Regarding `CCC(=O)N[C@H](CNC(=O)[C@H](N)C1CCCC1)Cc1nc2ccc(Cl)cc2s1` [Example 261], the half-maximal inhibitory concentration (IC50) was over 5 µM.

`CC[C@H](C)[C@@H](CN)NC(=O)[C@H](Cc1nc2ccc(C(C)C)cc2s1)NC=O` [Example 48, (S)—N-((2S,3S)-1-amino-3-methylpentan-2-yl)-2-formamido-3-(6-isopropylbenzo[d]thiazol-2-yl)propanamide]: the IC50 was over 5 µM. On the same count and under the same terms, the result for `CCC(=O)N[C@@H](Cc1nc2ccc(C(C)C)cc2s1)C(=O)N[C@H](C(=O)NCCN1CCOCC1)C1CCNCC1` [Example 265] reads over 10 µM.

On to `CCC(=O)N[C@@H](Cc1ccc2ccccc2c1)C(=O)N[C@H](C(=O)N[C@@H](CCCCN)C(=O)NCCc1ccccc1)[C@@H](C)CC` [Example 11] (Propionyl-[2Nal]-Ile-Lys-NHPhenethyl), for which the IC50 is over 10 µM.

As to `CCC(=O)N[C@@H](Cc1nc(C)c(-c2ccncc2)s1)C(=O)N[C@H](CN)Cc1ccccc1` [Example 230], the IC50 was over 10 µM. Turning to `CCC(=O)N[C@@H](Cc1nc(C)c(C(C)C)s1)C(=O)N[C@H](CN)Cc1ccccc1` [Example 99], the half-inhibitory concentration (IC50) is over 10 µM. Still for that read-out and setting: the result for `CCC(=O)N[C@H](Cc1nc2ccc(C(C)C)cc2s1)C(=O)N[C@@H](CN)C1CCCCC1` [Example 122, (R)—N—((R)-2-amino-1-cyclohexylethyl)-3-(6-isopropylbenzo[d]thiazol-2-yl)-2-propionamidopropanamide] reads over 10 µM; that for `CC(C)C(=O)N[C@@H](Cc1nc2ccc(C(C)C)cc2s1)C(=O)NCCN` [Example 95], over 10 µM. As for `CCC(=O)N[C@@H](Cc1nc2ccc(C(C)C)cc2s1)C(=O)N[C@@H](CNC(=O)CCN1CCOCC1)Cc1ccccc1` (stereo in doubt) [Example 94], the concentration for half-maximal inhibition (IC50) was over 10 µM. As to `NCCNC(=O)[C@H](Cc1nc2ccc(Cl)cc2s1)NC(=O)CCOc1ccccc1` [Example 237], the IC50 is over 10 µM.

The same experiment, now with this note: read-out: Binding affinity to DCN1 (IC50 (nM)).
`CCC(=O)N[C@@H](Cc1nc2ccc(Cl)cc2s1)C(=O)N[C@H](CNC(=O)CCN1CCOCC1)Cc1ccccc1` [Example 92]: the IC50 is 0.244 µM. The same measure, in the same setting: the result for `CCC(=O)N[C@@H](Cc1nc2ccc(C)cc2s1)C(=O)N[C@H](C(=O)N[C@H](C(=O)N[C@@H]1CCOc2ccccc21)C1CCNCC1)C1CCOCC1` [Example 190] reads 0.412 µM. Same read-out and setting: with `CCC(=O)N[C@@H](Cc1nc(C)c(-c2ccc(F)cc2)s1)C(=O)N[C@H](CN)Cc1ccccc1` [Example 100] the figure was 2.22 µM. On the same count and under the same terms, the result for `CCC(=O)N[C@@H](Cc1nc2ccc(Cl)cc2s1)C(=O)N[C@H](CN)C1CCOCC1` [Example 219] reads 1.56 µM; that for `CCC(=O)N[C@@H](Cc1nc2ccc(Cl)cc2s1)C(=O)N[C@H](C(=O)N[C@@H](CCCCN)C(=O)N[C@@H]1CNCc2ccccc21)C1CCOCC1` [Example 43], 0.0843 µM. Turning to `CCC(=O)N[C@@H](Cc1nc2ccc(C)cc2s1)C(=O)N[C@@H](Cc1ccncc1)C(=O)N[C@@H](CCCCN)C(=O)N[C@@H]1CCOc2ccccc21` [Example 184], the concentration for half-maximal inhibition (IC50) amounted to 0.149 µM. For `CCC(=O)N[C@@H](Cc1ccc2ccccc2c1)C(=O)N[C@H](C(=O)N[C@@H](CCCCN)C(=O)NCc1ccccc1)[C@@H](C)CC` [Example 10] (Propionyl-[2Nal]-Ile-Lys-NHBn), the IC50 worked out at 3.9 µM. `CCC(=O)N[C@@H](Cc1nc2ccc(CC)cc2s1)C(=O)N[C@H](C(=O)N[C@@H](CCCCN)C(=O)N[C@@H]1CCOc2ccccc21)C1CCCC1` [Example 176]: the IC50 worked out at 0.079 µM. Turning to `CCC(=O)N[C@@H](Cc1nc2ccc(C(C)C)cc2s1)C(=O)N[C@H](CN1CCOCC1)C1CCCCC1` [Example 80, (S)—N—((S)-1-cyclohexyl-2-morpholinoethyl)-3-(6-isopropylbenzo[d]thiazol-2-yl)-2-propionamidopropanamide], the 50% inhibitory concentration (IC50) is 0.157 µM. On the same count and under the same terms, with `CCC(=O)N[C@@H](Cc1nc2ccc(C(C)C)cc2s1)C(=O)N[C@H](CNC(=O)NC1CCN(C)CC1)C1CCCCC1` [Example 75] the figure was 0.0756 µM; with `CCC(=O)N[C@@H](Cc1nc2ccc(C(C)C)cc2s1)C(=O)N[C@@H](CC(F)(F)F)C(=O)N[C@@H](CCCCN)C(=O)N[C@@H](CC(C)C)C(N)=O` [Example 284] (Propionyl-[Ala(6-iPr-benzothiazol-2-yl)][Abu(4,4,4-F3)]KL-NH2), 0.154 µM; with `CCC(=O)N[C@@H](Cc1ccc2ccccc2c1)C(=O)N[C@H](C(=O)N[C@@H](CCCCN)C(=O)N[C@@H]1CCCc2ccccc21)[C@@H](C)CC` [Example 15], 0.461 µM. Still for that read-out and setting: with `CCC(=O)N[C@@H](Cc1ccc2ccccc2c1)C(=O)N[C@H](C(=O)N[C@@H](CCCCN)C(=O)N[C@@H]1CCOc2cccc(Cl)c21)C1CCCC1` [Example 163] the figure was 0.103 µM. `CCC(=O)N[C@@H](Cc1nc2ccc(Cl)cc2s1)C(=O)N[C@H](CN)Cc1ccccc1` [Example 86]: the 50% inhibitory concentration (IC50) came to 0.491 µM. As to `CC[C@H](C)[C@H](NC(=O)[C@H](Cc1nc2ccc(C(C)C)cc2s1)NC(=O)CC(C)C)C(=O)N[C@@H](CCCCN)C(=O)N[C@@H](CC(C)C)C(N)=O` [Example 277] (Isovaleryl-[Ala(6-iPr-benzothiazol-2-yl)]IKL-NH2), the IC50 came out at 0.517 µM. Still for that read-out and setting: with `CCC(=O)N[C@@H](Cc1ccc2ccccc2c1)C(=O)N[C@@H](Cc1cccs1)C(=O)N[C@@H](CCCCN)C(=O)NC(c1ccccc1)c1ccccc1` [Example 24] the figure was 0.967 µM; with `CCC(=O)N[C@@H](Cc1nc2ccc(C(C)C)cc2s1)C(=O)N[C@H](C(=O)N[C@@H](CCCCN)C(=O)N[C@@H](CC(C)C)C(N)=O)C1CCCCC1` [Example 286] (Propionyl-[Ala(6-iPr-benzothiazol-2-yl)][Chg]KL-NH2), 0.0583 µM; with `CCC(=O)N[C@@H](Cc1ccc2ccccc2c1)C(=O)N[C@H](C(=O)N[C@@H](CCCCN)C(=O)N[C@@H]1CCOc2ccc(Cl)cc21)C1CCCC1` [Example 164], 0.394 µM. The same measure, in the same setting: the result for `CCC(=O)N[C@@H](Cc1nc2ccc(C(C)C)cc2s1)C(=O)N[C@H](CNC(=O)c1ccncc1)C1CCCCC1` [Example 61] reads 0.128 µM.

Turning to `CCC(=O)N[C@@H](Cc1nc2ccc(CC)cc2s1)C(=O)N[C@H](C(=O)N[C@@H](CCCCN)C(=O)N[C@@H]1CCOc2ccccc21)C1CCOCC1` [Example 186], the IC50 was determined as 0.169 µM. The same measure, in the same setting: with `CCC(=O)N[C@@H](Cc1nc2ccc(CC)cc2s1)C(=O)N[C@H](C(=O)N[C@@H](CCCCN)C(=O)NC(c1ccccc1)c1ccccc1)C1CCCC1` [Example 174] the figure was 0.0775 µM. On the same count and under the same terms, the result for `CCC(=O)N[C@@H](Cc1nc2ccc(Cl)cc2s1)C(=O)N[C@H](C(=O)N[C@@H](CCCCN)C(=O)NC(c1ccccc1)c1ccccc1)C1CCCC1` [Example 30] reads 0.193 µM; that for `CCC(=O)N[C@@H](Cc1nc2ccc(CC)cc2o1)C(=O)N[C@H](C(=O)N[C@@H](CCCCN)C(=O)N[C@@H]1CCOc2ccccc21)C1CCOCC1` [Example 196], 0.0711 µM; that for `CCC(=O)N[C@@H](Cc1nc2ccc(Cl)cc2s1)C(=O)N[C@H](C(=O)N[C@@H](CCCCN)C(=O)NCc1ccccn1)C1CCOCC1` [Example 241], 0.913 µM.

Regarding `CCC(=O)N[C@@H](Cc1nc2ccc(C(C)C)cc2s1)C(=O)N[C@H](CNC(=O)C1CNC1)C1CCCCC1` [Example 68], the IC50 was found to be 0.0666 µM.

As for `CCC(=O)N[C@H](CNC(=O)c1ccccn1)Cc1nc2ccc(Cl)cc2s1` [Example 256], the IC50 was 2.14 µM. Still for that read-out and setting: with `CCC(=O)N[C@@H](Cc1cn2cc(Cl)ccc2n1)C(=O)N[C@H](C(=O)N[C@@H](CCCCN)C(=O)N[C@@H]1CCOc2ccccc21)C1CCCC1` [Example 212] the figure was 0.0556 µM; with `CC[C@H](C)[C@H](NC(=O)[C@H](Cc1nc2cc(Cl)ccc2s1)NC(C)=O)C(=O)N[C@@H](CCCCN)C(=O)N[C@@H](CC(C)C)C(N)=O` [Example 3, (S)-2-((2S,3 S)-2-((S)-2-acetamido-3-(5-chlorobenzo[d]thiazol-2-yl)propanamido)-3-methylpentanamido)-6-amino-N—((S)-1-amino-4-methyl-1-oxopentan-2-yl)hexanamide], 0.0092 ± 0.0014 µM; with `CCC(=O)N[C@@H](Cc1nc2ccc(CC)cc2o1)C(=O)N[C@H](C(=O)N[C@@H](CCCCN)C(=O)N[C@@H]1CCOc2ccccc21)C1CCCC1` [Example 195], 0.12 µM. On the same count and under the same terms, with `CCC(=O)N[C@@H](Cc1nc2ccc(C)cc2s1)C(=O)N[C@H](C(=O)N[C@@H](CCCCN)C(=O)N[C@@H]1CCOc2ccccc21)C1CCOCC1` [Example 181] the figure was 0.176 µM; with `CCC(=O)N[C@@H](Cc1nc2ccc(C(C)C)cc2s1)C(=O)N[C@H](Cn1cc(CN)nn1)C1CCCCC1` [Example 82], 0.243 µM; with `CCC(=O)N[C@@H](Cc1nc2ccc(C(C)C)cc2s1)C(=O)N[C@H](CNC(=O)C1CCN(CCO)CC1)C1CCCCC1` [Example 72], 0.0659 µM. On the same count and under the same terms, the result for `CCC(=O)N[C@@H](Cc1nc2ccc(C(C)C)cc2s1)C(=O)N[C@@H](C)C(=O)N[C@@H](CCCCN)C(=O)N[C@@H](CC(C)C)C(N)=O` [Example 280] (Propionyl-[Ala(6-iPr-benzothiazol-2-yl)]AKL-NH2) reads 0.0694 µM. Regarding `CCC(=O)N[C@@H](Cc1nc(C)c(-c2cccc(F)c2)s1)C(=O)N[C@H](CN)Cc1ccccc1` [Example 234], the IC50 is 1.28 µM.
